Experimental data reported in patent US20260042801A1, “COMPOSITIONS AND METHODS FOR DYE-BOUND CYCLIZED PEPTIDES FOR MEDICAL USE” (The Texas A&M University System, priority 2022, published 2026).

Legend:
[1] = tested on: cells lacking TrkB/TrkC receptors; experiment: Binding and activity in Trk negative cells (HEK293 and NIH/3T3); conditions: non-transfected HEK293 and NIH/3T3
Protocol: FIG. 2: 5c(i) binds to TrkB and TrkC receptors. Transfected cell lines that are Trk positive cells (TrkB-HEK293 and TrkC-NIH/3T3) and non-transfected cell lines that are Trk negative cells (HEK293 and NIH/3T3) were seeded approximately 2,000 cells/well in a 96-well plate and incubated for 24 hours. The cells were treated with a serial dilution of compound (0, 10, 25, 50, 100, 200, 500, and 1000 nM) in serum-free media (SFM) with and without A) 0.6 nM of BDNF (TrkB-HEK293 and HEK293) and B) 0.2 nM of NT-3 (TrkC-NIH/3T3 and NIH/3T3) for 2.5 h. After that, the cells were washed with PBS once to remove unbound compounds and dissolved in 1% (w/v) aqueous sodium dodecyl sulfate. Cell-associated fluorescence was then determined by measuring the emission of the resulting solution upon λex (540/25 nm) and λem (620/40 nm) using Agilent BioTek Synergy H4 Hybrid Microplate Reader. Kd was calculated by GraphPad Prism 9 using Binding saturation (One site—Specific binding).
Transfected cell lines that are Trk positive cells (TrkA-HeLa, TrkB-HEK293, and TrkC-NIH/3T3) and non-transfected cell lines that are Trk negative cells (HeLa, HEK293, and NIH/3T3) were seeded at 2,000 cells/well in a 96-well plate (0.32 cm^2 growth area) and incubated inside a 5% CO2 incubator at 37° C. for 24 hours. […] The dissociation constant (Kd) was calculated using binding saturation (One site—Specific binding).

[2] = tested on: severe T8 contusion/compression SCI; experiment: Preclinical SCI model: histological analysis of spinal cord; format: in vivo, mouse; conditions: 7 weeks post injury
Source text: FIGS. 11A-11E: Histological analysis of spinal cords after 5c(i) treatment. […] 7 weeks post injury, spinal cords were sectioned sagittal to conduct histological analyses. Value of 11A) change in intensity of 5-HT, average fluorescence intensity of 11B) IBA1 and 11C) CD68, and number of 11D) CD68+ and 11E) SOX9+ cells in relation to distance from injury (− value represents rostral to injury, + value represents caudal to injury). […] N=6-8. Graphs show mean and SEM. […] Student's T-test.
Mice were sacrificed 7 weeks after injury by a lethal dose of Fatal plus (pentobarbital), then, transcardial perfusion was performed with PBS-Heparin (10,000 unit/L, 20 mL, 5 mL/min) followed by a 4% paraformaldehyde fixative solution (30 mL/mouse, at 5 mL/min). Right after perfusion, tissues were immersed in 4% PFA for 24 hours, transferred to 15% sucrose for 24 hours, then transferred to 30% sucrose for 24 hours before being embedded. Subsequently, the spinal cords (at injury site±1 mm) were cut into 25 μm-thick transverse sections using a freezing microtome (THERMO FISHER SCIENTIFIC® (laboratory reagents), Microm HM550). For immunohistochemistry (IHC), the spinal cord tissue sections were placed in a blocking solution (5% BSA, 0.4% Triton X-100, PBS) for 1 hour at room temperature. This was followed by overnight incubation with primary antibodies at room temperature. The tissue sections were subsequently washed 3 times with 0.4% Triton X-100-PBS, followed by 1 hour incubation at room temperature with the appropriate secondary antibodies (1:500, INVITROGEN™ (laboratory reagents) ALEXA FLUOR® (fluorescent dyes) Plus series). The primary antibodies included biotinylated NeuN (EMD MILLIPORE® (pharmaceuticals and chemicals), MAB377B, 1:500), rat GFAP (FISHER SCIENTIFIC® (laboratory reagents), 130300, 1:500), rabbit Iba1 (FUJIFILM® (camera components) Wako Chemicals, 019-19741, 1:500), rat CD68 (BIO-RAD®, (electrophoresis and chromatography materials) MCA1957, 1:500), goat SOX9 (R&D SYSTEMS® (biological reagents), AF3075, 1:500), and rabbit anti-5-HT (ImmunoStar, 20080, 1:500). Sections were stained with DAPI (1:5000, Millipore Sigma) to visualize the nucleus. The images were acquired using VS120 Virtual Slide Microscope (Olympus) and Axio Observer 7 (ZEISS® (optical products)) and analyzed with QuPath 0.4.3. The contour (polygonal) tool in the Zen 3.2 (Carl Zeiss AG, Jena, Germany) software was used to trace and measure lesion and cavity size. The lesion size was measured by tracing the glial scar border labeled with GFAP surrounding a DAPI^+ inner region. Cavity size was measured by measuring the region within the spinal cord without any visible nuclei yet surrounded by GFAP labeled glial scar. Three spinal cord sections per animal were imaged and analyzed. The 3 sections included the section containing the largest lesion size along with sections 300 μm rostral and caudal. Images were quantified using QuPath software. Eight boxes with a width of 200 μm were drawn both rostral and caudal of the injury epicenter. A contour polygon was made around the spinal cord in each of the sixteen boxes. Fluorescent intensity and cell counting was conducted using automated QuPath software. Histological analysis on liver tissue was conducted by sectioning the left lobe of the liver into 8 μm-thick transverse sections. […] Collagen accumulation was quantified using automated QuPath software to determine the extent of fibrosis.

Which results are given for “C-DIRG-C BODIPY® (fluorescent dye) [5c(i)]”?
binding and biological activity in cells lacking TrkB/TrkC receptors [1]: lack of binding and biological activity; number of SOX9′ cells ([2]; around the injury site): reduced; prevalence of CD68+ cells ([2]; around the injury site): significantly reduced; CD68 immunoreactivity ([2]; at the injury site): significantly reduced; serotonergic (5-HT) axon immunoreactivity ([2]; caudal to the injury site): increased; IBA1 immunoreactivity ([2]; spinal cord): reduced
